# Laboratory results reported in US8778937B2, “Benzimidazole boronic acid derivatives as PI3 kinase inhibitors” (GlaxoSmithKline LLC, priority 2011, dated 2014).
# System: MDA-MB-468
# Test: Cell growth inhibition in PTEN-deficient cell line MDA-MB-468, anchorage independent, Alamar Blue
# Format: cell-based
# Conditions: Homo sapiens, 144 h, MDA-MB-468, anchorage independent (soft agar), 6 days incubation, read-out: Prolif EC50 (nM) MDA-MB-468
# Procedure: Cellular Assays—Cell Growth Inhibition in PTEN-Deficient Cell Line MDA-MB-468
# PTEN deficient tumor cell lines (MDA-MB-468) were cultured generally according to instructions supplied by cell culture supplier American Type Culture Collection, Manassas, Va., with 10% fetal bovine serum at 5% CO2 and 37° C. Cells were seeded into either a T-75 or a T-175 flask 3-4 days prior to 96-well assay plating such that the flasks were approximately 70-80% confluent of the time of harvest. Cells were harvested using 0.25% trypsin-EDTA (Invitrogen #25200056). Trypan Blue exclusion staining was used to determine cell number.
# Viable cells were plated in clear, flat bottom 96-well plates (BD #353075) under anchorage independent conditions at 2,000-10,000 cells per well depending on the cell line. To generate anchorage independent growth conditions, a 5% agar stock solution in water was made and autoclaved to melt and sterilize. From the 5% agar solution, a 0.6% agar/media+10% fetal bovine serum (FBS) solution was made to generate a bottom agar layer in the plates to prevent cell attachment. Seventy five microliters per well of the 0.6% agar-media solution was added to the plates. After solidification, a cell solution of 266,870 to 1,334,022 cells (depending on the cell line) in 10 ml of 0.3% agar/media+10% FBS was made and 75 μl of the cell/media/agar suspension was added to the plates. After the cell layer solidified, 50 μl of media+10% FBS was added to the top of the cells. A 0.3% Brij 35 (Sigma B4184) solution in media+10% FBS was added to column 12 as a background subtraction control. The cells were incubated overnight at 5% CO2 and 37° C. The next day one plate of cells was processed at the time of compound addition to quantify the starting number of cells (T=0 or T0).
# To generate the compound titration plates, 15 μl of a 2 mM or 20 μl of a 20 mM solution of the compound of example 31 was diluted in clear bottom polypropylene 96-well plate (BD #351190) using a 10 point, 3-fold titration or a 20 point 2-fold titration, respectively. Three hundred microliters of media was added to the compound dilutions. Ten microliters per well of the serial dilutions was added to the cells and the plates incubated for 6 days at 5% CO2 and 37° C. The final concentration of DMSO in all wells was 0.15% and the highest final concentration of the compound of example 31 was 3.7 μM or 30.7 μM.
# Following the 6-day incubation, 20 μl of Alamar Blue (Invitrogen #DAL1100) was added to the cells, incubated at 5% CO2 and 37° C. for 6 hours and the plates read on a Spectramax (Gemini EM) at 530 nm (excitation) and 590 nm (emission) with the auto cut-off disabled. For analysis of cell growth inhibition dose response curves, the data was plotted as the percent of the DMSO-treated control samples (DMSO samples set to 100%). The cellular response was determined for compounds and control compounds by fitting the concentration response with a 4 parameter curve fit using XLfit software and determining the concentration that inhibits 50% of the Ymax-Ymin window (EC50). The EC50 is the midpoint of active compound effect window (between Ymax plateau and Ymin plateau of compound) and represents the concentration of the compound of example 31 where 50% of its maximal effect is observed. Values from wells containing 0.3% Brij 35 (under anchorage independent conditions) were subtracted from all samples for background correction.
# The compounds listed in Table 3 were tested generally according to the assays described herein. Table 3 lists the EC50 values for either an experimental run or an average of two or more experimental runs with the examples shown.
row,Structure (SMILES),EC50 [nM]
1,"Cc1c(Cn2c(C)nc3c(B(O)O)cc(N4CCOCC4)cc32)cccc1C(F)(F)F [Example 4, (2-methyl-1-(2-methyl-3-(trifluoromethyl)benzyl)-6-morpholino-1H-benzo[d]imidazol-4-yl)boronic acid]",11.1
2,"Cc1nc2c(B(O)O)cc(N3CCOCC3)cc2n1Cc1cccc2ccccc12 [Example 6, (2-methyl-6-morpholino-1-(naphthalen-1-ylmethyl)-1H-benzo[d]imidazol-4-yl)boronic acid]",22.3
3,"Cc1nc2c(B(O)O)cc(N3CCOCC3)cc2n1Cc1cccc(Cl)c1Cl [Example 8, (1-(2,3-dichlorobenzyl)-2-methyl-6-morpholino-1H-benzo[d]imidazol-4-yl)boronic acid]",42
4,Cc1nc2c(B(O)O)cc(N3CCOCC3)cc2n1Cc1cccc2ccsc12 [Example 9],88.2
5,"Cc1ccccc1Cn1c(C)nc2c(B(O)O)cc(N3CCOCC3)cc21 [Example 11, (2-methyl-1-(2-methylbenzyl)-6-morpholino-1H-benzo[d]imidazol-4-yl)boronic acid]",1140
6,"Cc1nc2c(B(O)O)cc(N3CCOCC3)cc2n1Cc1cccc(Cl)c1 [Example 13, (1-(3-chlorobenzyl)-2-methyl-6-morpholino-1H-benzo[d]imidazol-4-yl)boronic acid]",246
7,"Cc1c(Cn2cnc3c(B(O)O)cc(N4CCOCC4)cc32)cccc1C(F)(F)F [Example 14, (1-(2-methyl-3-(trifluoromethyl)benzyl)-6-morpholino-1H-benzo[d]imidazol-4-yl)boronic acid]",62.8
8,"Cc1c(Cl)cccc1Cn1c(CF)nc2c(B(O)O)cc(N3CCOCC3)cc21 [Example 17, (1-(3-chloro-2-methylbenzyl)-2-(fluoromethyl)-6-morpholino-1H-benzo[d]imidazol-4-yl)boronic acid]",17.8
9,"Cc1c(Cn2c(C3CC3)nc3c(B(O)O)cc(N4CCOCC4)cc32)cccc1C(F)(F)F [Example 23, (2-cyclopropyl-1-(2-methyl-3-(trifluoromethyl)benzyl)-6-morpholino-1H-benzo[d]imidazol-4-yl)boronic acid]",126

# The next lines start with the values.
row,EC50 [nM],Structure (SMILES)
1,6.7,"Cc1c(Cl)cccc1Cn1c(C)nc2c(B(O)O)cc(N3CCOCC3)cc21 [Example 5, (1-(3-chloro-2-methylbenzyl)-2-methyl-6-morpholino-1H-benzo[d]imidazol-4-yl)boronic acid]"
2,18.3,"Cc1cccc(Cn2c(C)nc3c(B(O)O)cc(N4CCOCC4)cc32)c1C [Example 7, (1-(2,3-dimethylbenzyl)-2-methyl-6-morpholino-1H-benzo[d]imidazol-4-yl)boronic acid]"
3,1880,"Cc1cccc(Cn2c(C)nc3c(B(O)O)cc(N4CCOCC4)cc32)c1 [Example 10, (2-methyl-1-(3-methylbenzyl)-6-morpholino-1H-benzo[d]imidazol-4-yl)boronic acid]"
4,3580,"Cc1nc2c(B(O)O)cc(N3CCOCC3)cc2n1Cc1ccccc1Cl [Example 12, (1-(2-chlorobenzyl)-2-methyl-6-morpholino-1H-benzo[d]imidazol-4-yl)boronic acid]"
5,60,"Cc1c(Cl)cccc1Cn1cnc2c(B(O)O)cc(N3CCOCC3)cc21 [Example 15, (1-(3-chloro-2-methylbenzyl)-6-morpholino-1H-benzo[d]imidazol-4-yl)boronic acid]"
6,21.5,"Cc1c(Cn2c(CF)nc3c(B(O)O)cc(N4CCOCC4)cc32)cccc1C(F)(F)F [Example 16, (2-(fluoromethyl)-1-(2-methyl-3-(trifluoromethyl)benzyl)-6-morpholino-1H-benzo[d]imidazol-4-yl)boronic acid]"
7,13.5,"Cc1c(Cn2c(CO)nc3c(B(O)O)cc(N4CCOCC4)cc32)cccc1C(F)(F)F [Example 18, (2-(hydroxymethyl)-1-(2-methyl-3-(trifluoromethyl)benzyl)-6-morpholino-1H-benzo[d]imidazol-4-yl)boronic acid]"
8,31.5,"Cc1c(Cl)cccc1Cn1c(C(F)F)nc2c(B(O)O)cc(N3CCOCC3)cc21 [Example 19, (1-(3-chloro-2-methylbenzyl)-2-(difluoromethyl)-6-morpholino-1H-benzo[d]imidazol-4-yl)boronic acid]"
9,39.8,"Cc1c(Cn2c(C(F)F)nc3c(B(O)O)cc(N4CCOCC4)cc32)cccc1C(F)(F)F [Example 20, (2-(difluoromethyl)-1-(2-methyl-3-(trifluoromethyl)benzyl)-6-morpholino-1H-benzo[d]imidazol-4-yl)boronic acid]"
10,130,"Cc1c(Cl)cccc1Cn1c(C(F)(F)F)nc2c(B(O)O)cc(N3CCOCC3)cc21 [Example 21, (1-(3-chloro-2-methylbenzyl)-6-morpholino-2-(trifluoromethyl)-1H-benzo[d]imidazol-4-yl)boronic acid]"
11,161,"Cc1c(Cn2c(C(C)C)nc3c(B(O)O)cc(N4CCOCC4)cc32)cccc1C(F)(F)F [Example 22, (2-isopropyl-1-(2-methyl-3-(trifluoromethyl)benzyl)-6-morpholino-1H-benzo[d]imidazol-4-yl)boronic acid]"
